≈ marks a conversion by molar mass, not a printed value. Like-named read-outs stand apart in the source and are kept apart here.
Tests used:
E. coli = test: AK assay 384-well format, Prestwick library screening; format: cell-based, Escherichia coli; settings: Escherichia coli, 3 h; planktonic E. coli; 50 μM final drug concentration; 384-well; cutoff for positive-scoring molecules 3-fold increase; read-out: AK-based Prestwick Library Screening Results: E. coli (increase in extracellular AK activity)
[1] = system: Enterococcus faecium 824-05; test: MIC testing; format: cell-based; settings: 82405; Enterococcus faecium 824-05; read-out: MIC
[2] = system: Enterobacter cloacae PMD1001; test: MIC testing; format: cell-based
[3] = system: S. aureus strain USA300-0114; test: AK assay 384-well format, Prestwick library screening; format: cell-based, Staphylococcus aureus; settings: Staphylococcus aureus, USA300, 3 h; planktonic S. aureus; 50 μM final drug concentration; 384-well; cutoff for positive-scoring molecules 3-fold increase; read-out: AK-based Prestwick Library Screening Results: S. aureus (increase in extracellular AK activity)
P. aeruginosa = test: as above; format: cell-based, Pseudomonas aeruginosa; settings: Pseudomonas aeruginosa, 3 h; planktonic P. aeruginosa; 50 μM final drug concentration; 384-well; cutoff for positive-scoring molecules 3-fold increase; read-out: AK-based Prestwick Library Screening Results: P. aeruginosa (increase in extracellular AK activity)
E. cloacae = test: as above; format: cell-based, Enterobacter cloacae; settings: Enterobacter cloacae, 3 h; planktonic E. cloacae; 50 μM final drug concentration; 384-well; cutoff for positive-scoring molecules 3-fold increase; read-out: AK-based Prestwick Library Screening Results: E. cloacae (increase in extracellular AK activity)
K. pneumoniae = test: as above; format: cell-based, Klebsiella pneumoniae; settings: Klebsiella pneumoniae, 3 h; planktonic K. pneumoniae; 50 μM final drug concentration; 384-well; cutoff for positive-scoring molecules 3-fold increase; read-out: AK-based Prestwick Library Screening Results: K. pneumoniae (increase in extracellular AK activity)
[4] = system: Pseudomonas aeruginosa PA01; test: AK assay 96-well format; format: cell-based
E. faecium = test: AK assay 384-well format, Prestwick library screening; format: cell-based, Enterococcus faecium; settings: Enterococcus faecium, 3 h; planktonic E. faecium; 50 μM final drug concentration; 384-well; cutoff for positive-scoring molecules 3-fold increase; read-out: AK-based Prestwick Library Screening Results: E. faecium (increase in extracellular AK activity)
[5] = system: Acinetobacter baumannii 98-37-09; test: MIC testing; format: cell-based; settings: 983709; Acinetobacter baumannii 98-37-09; read-out: MIC
Staphylococcus aureus = test: MIC testing; format: cell-based
[6] = system: E. coli and each of the ESKAPE pathogens; test: AK-based Prestwick library screening, summary across organisms; format: cell-based; settings: 50 μM, cutoff 3-fold increase in AK
[7] = system: Klebsiella pneumoniae cKP1; test: MIC testing; format: cell-based; settings: Klebsiella pneumoniae cKP1; read-out: MIC
Escherichia coli 8295 = test: MIC testing; format: cell-based
[8] = system: A. baumannii strain 98-37-09; test: AK assay 384-well format, Prestwick library screening; format: cell-based, Acinetobacter baumannii; settings: Acinetobacter baumannii, 983709, 3 h; planktonic A. baumannii; 50 μM final drug concentration; 384-well; cutoff for positive-scoring molecules 3-fold increase; read-out: AK-based Prestwick Library Screening Results: A. baumannii (increase in extracellular AK activity)
[9] = system: Pseudomonas aeruginosa PA01; test: MIC testing; format: cell-based; settings: read-out: MIC

CC[C@H]1OC(=O)[C@H](C)[C@@H](O[C@H]2C[C@@](C)(OC)[C@@H](O)[C@H](C)O2)[C@H](C)[C@@H](O[C@@H]2O[C@H](C)C[C@H](N(C)C)[C@H]2O)[C@](C)(O)C[C@@H](C)C(=O)[C@H](C)[C@@H](O)[C@]1(C)O [Erythromycin, erythromycin]
fold induction at 50 µM (E. coli): 1
MIC [1]: > 256 µg/mL
MIC [2]: 256 µg/mL (≈ 349 µM)
fold induction at 50 µM [3]: 8.2
fold induction at 50 µM (P. aeruginosa): 0.7
fold induction at 50 µM (E. cloacae): 1.6
fold induction at 50 µM (K. pneumoniae): 1
Fold increase in AK signal ([4]; treatment 0.5×MIC): 3 fold
Fold increase in AK signal ([4]; treatment 1.0×MIC): 1 fold
fold induction at 50 µM (E. faecium): 1
MIC [5]: 16 µg/mL (≈ 21.8 µM)
MIC (Staphylococcus aureus; Staphylococcus aureus): 2 µg/mL (≈ 2.73 µM)
MIC (Staphylococcus aureus; Staphylococcus aureus USA300-0114, read-out: MIC): 64 µg/mL (≈ 87.2 µM)
activity in AK Prestwick screen, all species tested [6]: not identified as being active
MIC [7]: > 256 µg/mL
MIC (Escherichia coli 8295): 256 µg/mL (≈ 349 µM)
fold induction at 50 µM [8]: 1.5
MIC [9]: 32 µg/mL (≈ 43.6 µM)
